According to patent US20100261766A1, “Phenyl-Oxetanyl-Derivatives” (priority 2007, published 2010):

What was measured:
S1P5 receptor = S1P5 receptor (Homo sapiens, UniProt Q9H228); experiment: S1P5 GTP[γ-35S] binding assay, membranes of CHO cells; type: biochemical; conditions: agonistic activity in vitro; read-out: S1P-5 GTPyS/EC50
Protocol: (§1) A. In Vitro: GPCR Activation Assay Measuring GTP [γ-^35S] Binding to Membranes Prepared from CHO Cells Expressing Human EDG Receptors
(§2) Serial dilutions of compounds (stock in 10 mM DMSO) are prepared by first diluting the compounds in DMSO (1:10) followed by a 1:20 dilution into assay buffer (50 mM HEPES, pH 7.4, 5 mM MgCl2, 1 mM CaCl2, 1% fatty acid-free BSA). S1P (1 mM in DMSO/HCl) is diluted directly into assay buffer. The desired amount of membranes (1-5 μg/well) is diluted with assay buffer containing 10 μM GDP, 25 μg/mL Saponin and 5 mg/mL WGA-SPA beads. 9 μL of pre-diluted compound is placed into the bottom of a 96-well deep-well plate. 440 μL of the membrane-WGA-SPA bead slurry is added and the plate stirred for 15 minutes. Then twice 210 μL are transferred each into a 96-well Optiplate containing 15 μL GTP [γ-^35S] (4 nM in assay buffer). After incubation at room temperature for 120 minutes under constant shaking the plates are centrifuged for 10 minutes at 1000 g to pellet the membrane-SPA beads slurry. Then the plates are measured in a TOPcount NXT. Eight different concentrations of compound are used to generate a concentration response curve (using two data points per concentration) and the corresponding EC50 value using the curve-fitting tool of GraphPad Prism.
For each membrane preparation, titration experiments are first run with S1P control to determine the optimal amount of membranes to be added per assay well.

[1] = target: T1, human S1P1 (EDG-1) receptor (Homo sapiens, UniProt P21453); experiment: S1P1 (EDG-1) GTP[γ-35S] binding assay, membranes of CHO cells; type: biochemical; conditions: agonistic activity in vitro; read-out: S1P-1 GTPyS/EC50
T1 construct: c-myc (N); expressed in transfected cells
T1 sequence (P21453 whole entry): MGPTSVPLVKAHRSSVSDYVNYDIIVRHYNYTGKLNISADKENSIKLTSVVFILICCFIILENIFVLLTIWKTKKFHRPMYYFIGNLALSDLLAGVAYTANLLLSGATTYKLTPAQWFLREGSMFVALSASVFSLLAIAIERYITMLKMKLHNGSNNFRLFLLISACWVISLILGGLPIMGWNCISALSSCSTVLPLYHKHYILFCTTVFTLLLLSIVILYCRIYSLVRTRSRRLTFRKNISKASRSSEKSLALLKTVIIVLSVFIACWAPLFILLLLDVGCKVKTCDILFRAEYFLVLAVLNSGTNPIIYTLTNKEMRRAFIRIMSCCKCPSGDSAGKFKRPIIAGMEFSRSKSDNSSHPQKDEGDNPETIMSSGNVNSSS
Protocol: as §1
S1P1 (EDG-1) GTP [γ-^35S] assay: Homogenized membranes are prepared from CHO cell clones stably expressing a human EDG-1 N-terminal c-myc tag. Cells are grown in large culture dishes (500 cm^2) to a confluence between 80 and 90%. The culture medium is removed and 20 mL ice-cold buffer A (10 mM HEPES, pH 7.4, 10 mM EDTA, complete protease inhibitor cocktail [1 tablet/50 mL]) added. The cells are harvested by scraping and the cell suspension centrifuged at 750×g for 10 min at 4° C. The pellet is resuspended in 10 mL ice-cold buffer B (20 mM HEPES, pH 7.4, 100 mM NaCl, 10 mM MgCl2, 1 mM EDTA). The cell suspension is homogenized on ice, using a Polytron homogenizer at 25000 rpm at three intervals of 20 seconds each. Then the homogenate is centrifuged at 26900×g for 30 min at 4° C. and the membrane protein pellet resuspended by vortexing in cold buffer B. The protein concentration is determined using the Bio Rad Protein Assay and human IgG as standard. The volume of the membrane protein suspension is adjusted to a final concentration of about 2 mg protein/mL. The solution is then once again homogenized (Polytron) on ice at 25000 rpm for 20 seconds before being aliquoted and stored at −80° C.
as §2

[2] = test system: experimental autoimmune encephalomyelitis (EAE); experiment: Chronic-progressive EAE model (therapeutic treatment); type: in vivo, DA rat; conditions: therapeutic treatment after peak of disease; from day 15 post-immunization (after 4 days of treatment) until end of experiment; scale 0-5
circulating lymphocytes = experiment: Blood lymphocyte depletion in rats; type: in vivo, Lewis rats; conditions: for recovery of lymphocyte counts back to baseline: within 48 hours
Protocol: Measurement of circulating lymphocytes: Lewis rats (male, 6-12 weeks old) are orally administered with 0.1 to 5 mg/kg of compound (4 ml/kg vehicle, e.g. in max. 2% DMSO/max. 2% PEG200/water or 0.5% methyl cellulose). A vehicle group is included as negative control.
Blood is collected from the sublingual vein at baseline (0 h) and 2, 6, 24 and 48 hours after administration under short isoflurane anesthesia. Whole blood samples are subjected to hematology analysis. Peripheral lymphocyte counts are determined using an automated analyzer. Two to four rats are used to assess the lymphocyte counts of each dose.

[3] = test system: experimental autoimmune uveitis (EAU); experiment: S-antigen-induced experimental autoimmune uveitis (EAU); type: in vivo, Lewis rats; conditions: 3 and 10 mg/kg bid p.o., day 7 to day 18 post-immunization
[4] = test system: experimental autoimmune encephalomyelitis (EAE); experiment: Acute EAE model; type: in vivo, Lewis rats; conditions: 10 mg/kg b.i.d., oral gavage, days 0-13

Sequence of S1P5 receptor (Q9H228 whole entry): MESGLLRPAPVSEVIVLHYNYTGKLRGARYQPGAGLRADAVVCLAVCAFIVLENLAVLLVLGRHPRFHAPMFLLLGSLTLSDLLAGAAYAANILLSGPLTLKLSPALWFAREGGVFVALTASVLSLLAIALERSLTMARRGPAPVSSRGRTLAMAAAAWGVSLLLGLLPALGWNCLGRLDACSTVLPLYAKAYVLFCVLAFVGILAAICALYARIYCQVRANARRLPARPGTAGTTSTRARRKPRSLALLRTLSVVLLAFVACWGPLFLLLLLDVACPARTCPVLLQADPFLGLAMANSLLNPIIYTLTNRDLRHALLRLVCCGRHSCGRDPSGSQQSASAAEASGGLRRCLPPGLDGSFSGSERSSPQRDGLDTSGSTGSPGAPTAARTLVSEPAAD

| Compound | EC50 (S1P5 receptor) | EC50 [1] | clinical scores in chronic-progressive EAE [2] | recovery of lymphocyte counts back to baseline (circulating lymphocytes; 1 mg/kg p.o.) | recovery of lymphocyte counts back to baseline (circulating lymphocytes; 5 mg/kg p.o.) | peripheral lymphocyte counts (circulating lymphocytes; 0.1 to 5 mg/kg p.o., Lewis rats) | time of maximal reduction of peripheral lymphocyte counts post-administration (circulating lymphocytes; 1 or 5 mg/kg p.o., Lewis rats) | protection from autoimmune uveitis [3] | effect on disease symptoms in acute EAE [4] |
| --- | --- | --- | --- | --- | --- | --- | --- | --- | --- |
| CCOc1ccc(-c2nc(-c3ccc(C4(O)COC4)cc3)no2)cc1C#N [Example 6, 5-{3-[4-(3-Hydroxy-oxetan-3-yl)-phenyl]-[1,2,4]oxadiazol-5-yl}-2-ethoxy-benzonitrile] | 280 nM | 29 nM |  |  |  |  |  |  |  |
| CC(=O)c1cc(-c2nc(-c3ccc(C4(N)COC4)cc3)no2)ccc1OC(C)C [Example 3] | 180 nM | 13 nM |  |  |  |  |  |  |  |
| CC(=O)c1cc(-c2nc(-c3ccc(C4(O)COC4)cc3)no2)ccc1OC(C)C [Example 5] | 310 nM | 25 nM |  |  |  |  |  |  |  |

The next lines start with results.

| EC50 (S1P5 receptor) | EC50 [1] | Compound | clinical scores in chronic-progressive EAE [2] | recovery of lymphocyte counts back to baseline (circulating lymphocytes; 1 mg/kg p.o.) | recovery of lymphocyte counts back to baseline (circulating lymphocytes; 5 mg/kg p.o.) | peripheral lymphocyte counts (circulating lymphocytes; 0.1 to 5 mg/kg p.o., Lewis rats) | time of maximal reduction of peripheral lymphocyte counts post-administration (circulating lymphocytes; 1 or 5 mg/kg p.o., Lewis rats) | protection from autoimmune uveitis [3] | effect on disease symptoms in acute EAE [4] |
| --- | --- | --- | --- | --- | --- | --- | --- | --- | --- |
| 30 nM | 6 nM | CC(C)Oc1ccc(-c2nc(-c3ccc(C4(O)COC4)cc3)no2)cc1C#N [Example 2] |  |  |  |  |  |  |  |
| 90 nM | 10 nM | CC(C)Oc1ccc(-c2nc(-c3ccc(C4(N)COC4)cc3)no2)cc1C#N [Example 1, 5-{3-[4-(3-Amino-oxetan-3-yl)-phenyl]-[1,2,4]oxadiazol-5-yl}-2-iso-propoxy-benzonitrile] | < 0.5 | fully | partially recover back to baseline | dose-dependent reduction | 6 h | dose-dependent protection from autoimmune uveitis | prevention of disease symptoms |
| 300 nM | 17 nM | CCOc1ccc(-c2nc(-c3ccc(C4(N)COC4)cc3)no2)cc1C#N [Example 4] |  |  |  |  |  |  |  |
